≈ marks a conversion by molar mass, not a printed value.
Columns and labels:
[1] = Compound solubility in water
acid ceramidase = target: T1, acid ceramidase (Homo sapiens, UniProt Q13510); assay: Acid ceramidase inhibition, biochemical fluorescent assay with cell lysates overexpressing acid ceramidase, substrate Rbm14-12; conditions: substrate Rbm14-12 6.3 μM
T1 construct: Cell lysates overexpressing acid ceramidase were used as the enzyme source; expressed in transfected cells
T1 sequence (Q13510 22-395): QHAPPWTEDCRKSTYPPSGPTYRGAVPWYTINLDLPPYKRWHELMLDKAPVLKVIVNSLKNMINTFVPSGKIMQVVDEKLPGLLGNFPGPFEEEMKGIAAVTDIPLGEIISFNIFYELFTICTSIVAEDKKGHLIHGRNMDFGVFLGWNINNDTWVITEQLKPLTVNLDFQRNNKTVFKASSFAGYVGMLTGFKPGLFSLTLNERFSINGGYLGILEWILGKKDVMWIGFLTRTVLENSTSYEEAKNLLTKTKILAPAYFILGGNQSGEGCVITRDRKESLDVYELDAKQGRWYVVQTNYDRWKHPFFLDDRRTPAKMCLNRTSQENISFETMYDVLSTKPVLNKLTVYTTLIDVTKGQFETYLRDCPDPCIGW
Outline: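 Lysate of cells overexpressing acid ceramidase (10 μg protein) preincubated with compound dose series 1 hr at RT in 25 mM NaAC, 100 mM NaCl, pH 4.5, then reacted 1 hr with 6.3 μM Rbm14-12. Stopped with NaIO4/glycine buffer pH 10.6, fluorescence ex360/em446; IC50 by four-parameter fit.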

[2] = pH 4.5, 1 hr preincubation at RT

solubility [1] | IC50 (acid ceramidase; [2]) | IC50 (acid ceramidase; pH 4.5) | Compound
21 µg/mL (≈ 66.4 µM) | 0.2 to 1 µM |  | CC(C)CCNC(=O)n1cnc2c(N3CCOCC3)cccc21 [Example 118, N-iso-Pentyl-4-morpholino-1H-benzo[d]imidazole-1-carboxamide]
22 µg/mL (≈ 59.2 µM) |  | < 0.2 µM | CC(C)C#CCNC(=O)n1cnc2c(N3CCN(CCF)CC3)cccc21 [Example 309, 4-(4-(2-Fluoroethyl)piperazin-1-yl)-N-(4-methylpent-2-yn-1-yl)-1H-benzo[d]imidazole-1-carboxamide]
15 µg/mL (≈ 42 µM) |  | 0.2 to 1 µM | CCCN1CCN(c2cccc3c2ncn3C(=O)NCCC(C)C)CC1 [Example 202, N-iso-Pentyl-4-(4-propylpiperazin-1-yl)-1H-benzo[d]imidazole-1-carboxamide]
14 µg/mL (≈ 40.6 µM) |  | 0.2 to 1 µM | CC(C)CCNC(=O)n1cnc2c(N3CCOC(C)(C)C3)cccc21 [Example 170, 4-(2,2-Dimethylmorpholino)-N-isopentyl-1H-benzo[d]imidazole-1-carboxamide]
23 µg/mL (≈ 60.8 µM) |  | < 0.2 µM | CC(C)C#CCNC(=O)n1cnc2c(N3CCN(C)C(CC#N)C3)cccc21 (stereo not drawn) [Example 306, 4-(3-(Cyanomethyl)-4-methylpiperazin-1-yl)-N-(4-methylpent-2-ynyl)-1H-benzo[d]imidazole-1-carboxamide]
22 µg/mL (≈ 60.2 µM) |  | < 0.2 µM | CC(C)C#CCNC(=O)n1cnc2c(N3CCN4CCCC4C3)cccc21 (stereo not drawn) [Example 302, 4-(Hexahydropyrrolo[1,2-a]pyrazin-2(1H)-yl)-N-(4-methylpent-2-yn-1-yl)-1H-benzo[d]imidazole-1-carboxamide]
32 µg/mL (≈ 97.4 µM) |  | 0.2 to 1 µM | CC(C)CCNC(=O)n1cnc2c(C3CCN(C)CC3)cccc21 [Example 182, N-iso-Pentyl-4-(1-methylpiperidin-4-yl)-1H-benzo[d]imidazole-1-carboxamide]
32 µg/mL (≈ 89.5 µM) |  | 0.2 to 1 µM | CC(C)CCNC(=O)n1cnc2c(N3CCN(C(C)C)CC3)cccc21 [Example 207, N-iso-Pentyl-4-(4-isopropylpiperazin-1-yl)-1H-benzo[d]imidazole-1-carboxamide]
21 µg/mL (≈ 49.9 µM) | < 0.2 µM |  | COc1cc(C2CCN(C)CC2)c2ncn(C(=O)NCCCCc3ccccc3)c2c1 [Example 136, 6-Methoxy-4-(1-methylpiperidin-4-yl)-N-(4-phenylbutyl)-1H-benzo[d]imidazole-1-carboxamide]
0.2 µg/mL (≈ 0.463 µM) | 0.2 to 1 µM |  | CC(C)CCNC(=O)n1cnc2c(N3CCN(c4cccc5cncn45)CC3)cccc21 [Example 156, 4-(4-(Imidazo[1,5-a]pyridin-5-yl)piperazin-1-yl)-N-iso-pentyl-1H-benzo[d]imidazole-1-carboxamide]
13.9 µg/mL (≈ 60.1 µM) | < 0.2 µM |  | CC(C)CCNC(=O)n1cnc2ccccc21 [Example 107, N-iso-Pentyl-1H-benzo[d]imidazole-1-carboxamide]

Continued, molecule first:

Compound | solubility [1] | IC50 (acid ceramidase; [2]) | IC50 (acid ceramidase; pH 4.5)
CCCCNC(=O)n1c(OC)nc2c(OC)cccc21 [Example 100, N-Butyl-2,4-dimethoxy-1H-benzo[d]imidazole-1-carboxamide] | 28 µg/mL (≈ 101 µM) | 0.2 to 1 µM | 
CN1CCN(c2ccc3c(c2)ncn3C(=O)NCCc2ccccc2)CC1 [Example 15a, 5-(4-Methylpiperazin-1-yl)-N-phenethyl-1H-benzo[d]imidazole-1-carboxamide] | 20.4 µg/mL (≈ 56.1 µM) | < 0.2 µM | 
O=C(NCCc1ccccc1)n1cnc2nc(C(F)(F)F)ccc21 [Example 66b, N-phenethyl-5-(trifluoromethyl)-1H-imidazo[4,5-b]pyridine-1-carboxamide] | 12.9 µg/mL (≈ 38.6 µM) | < 0.2 µM | 
O=C(NCCOc1ccccc1)n1cnc2ccc(C(F)(F)F)cc21 [Example 46b, N-(2-phenoxyethyl)-6-(trifluoromethyl)-1H-benzo[d]imidazole-1-carboxamide] | 0.3 µg/mL (≈ 0.859 µM) | < 0.2 µM | 
CC(C)CCNC(=O)n1cnc2c(N3CCC4(CC3)COC4)cccc21 [Example 175, N-iso-Pentyl-4-(2-oxa-7-azaspiro[3.5]nonan-7-yl)-1H-benzo[d]imidazole-1-carboxamide] | 18 µg/mL (≈ 50.5 µM) |  | 0.2 to 1 µM
O=C(NCCc1ccccc1)n1cnc2ccncc21 [Example 21, N-Phenethyl-3H-imidazo[4,5-c]pyridine-3-carboxamide] | 4.3 µg/mL (≈ 16.1 µM) | < 0.2 µM | 
COc1cccc(C#CCNC(=O)n2cnc3c(N4CCN(C)CC4)cccc32)c1 [Example 340, N-(3-(3-Methoxyphenyl)prop-2-yn-1-yl)-4-(4-methylpiperazin-1-yl)-1H-benzo[d]imidazole-1-carboxamide] | 13 µg/mL (≈ 32.2 µM) | < 0.2 µM | 
O=C(NCCOc1ccccc1)n1cnc2c(C(F)(F)F)cccc21 [Example 72, N-(2-Phenoxyethyl)-4-(trifluoromethyl)-1H-benzo[d]imidazole-1-carboxamide] | 2 µg/mL (≈ 5.73 µM) | < 0.2 µM | 
CNC1CN(c2cccc3c2ncn3C(=O)NCCOc2ccccc2)C1 [Example 354, 4-(3-(Methylamino)azetidin-1-yl)-N-(2-phenoxyethyl)-1H-benzo[d]imidazole-1-carboxamide] | 19 µg/mL (≈ 52 µM) | > 1 µM | 
CN1CCN(c2cccc3c2ncn3C(=O)NCC#CCC2(C(F)(F)F)CC2)CC1 [Example 285, 4-(4-Methylpiperazin-1-yl)-N-(4-(1-(trifluoromethyl)cyclopropyl)but-2-yn-1-yl)-1H-benzo[d]imidazole-1-carboxamide] | 22 µg/mL (≈ 52.4 µM) |  | < 0.2 µM
COc1cc(N2CCCCC2)c2ncn(C(=O)NCCCCC3CC3)c2c1 [Example 132, N-(4-Cyclopropylbutyl)-6-methoxy-4-(piperidin-1-yl)-1H-benzo[d]imidazole-1-carboxamide] | 0.2 µg/mL (≈ 0.54 µM) | < 0.2 µM | 
O=C(NCCc1ccccc1)n1cnc2cc(C(F)(F)F)ccc21 [Example 26a, N-Phenethyl-5-(trifluoromethyl)-1H-benzo[d]imidazole-1-carboxamide] | 0.5 µg/mL (≈ 1.5 µM) | < 0.2 µM | 
COc1nc2cc(C3CCN(C)CC3)ccc2n1C(=O)NCCCc1ccccc1 [Example 195a, 2-Methoxy-5-(1-methylpiperidin-4-yl)-N-(3-phenylpropyl)-1H-benzo[d]imidazole-1-carboxamide] | 43 µg/mL (≈ 106 µM) |  | > 1 µM
O=C(NCc1ccccc1)n1cnc2ccccc21 [Example 17, N-Benzyl-1H-benzo[d]imidazole-1-carboxamide] | 1.9 µg/mL (≈ 7.56 µM) | < 0.2 µM | 
O=C(NCCOc1ccccc1)n1cnc2c(F)cccc21 [Example 73, 4-Fluoro-N-(2-phenoxyethyl)-1H-benzo[d]imidazole-1-carboxamide] | 2.7 µg/mL (≈ 9.02 µM) | < 0.2 µM | 
COc1nc2ncccc2n1C(=O)NCCCCc1ccccc1 [Example 61, 2-Methoxy-N-(4-phenylbutyl)-1H-imidazo[4,5-b]pyridine-1-carboxamide] | 1 µg/mL (≈ 3.08 µM) | < 0.2 µM | 
O=C(NCCOCc1ccccc1)n1cnc2ccccc21 [Example 42, N-(2-(Benzyloxy)ethyl)-1H-benzo[d]imidazole-1-carboxamide] | 17.7 µg/mL (≈ 59.9 µM) | < 0.2 µM | 
COc1nc2cc(N3CCOCC3)ccc2n1C(=O)NCCCCc1ccccc1 [Example 133b, 2-methoxy-5-morpholino-N-(4-phenylbutyl)-1H-benzo[d]imidazole-1-carboxamide] | 2 µg/mL (≈ 4.9 µM) | < 0.2 µM | 
O=C(NCCCc1ccccc1)n1cnc2c(CCCN3CCC3)cccc21 [Example 262, 4-(3-(Azetidin-1-yl)propyl)-N-(3-phenylpropyl)-1H-benzo[d]imidazole-1-carboxamide] | 21 µg/mL (≈ 55.8 µM) |  | < 0.2 µM
O=C(NCCOc1ccc(F)cc1)n1cnc2ccccc21 [Example 47, N-(2-(4-Fluorophenoxy)ethyl)-1H-benzo[d]imidazole-1-carboxamide] | 4.3 µg/mL (≈ 14.4 µM) | < 0.2 µM | 
O=C(NCCCc1ccccc1)n1cnc2c(N3CC(C(F)(F)F)C3)cccc21 [Example 273, N-(3-Phenylpropyl)-4-(3-(trifluoromethyl)azetidin-1-yl)-1H-benzo[d]imidazole-1-carboxamide] | 0.2 µg/mL (≈ 0.497 µM) |  | < 0.2 µM
C[C@@H]1CN(c2cccc3c2ncn3C(=O)NCCCc2ccccc2)C[C@H](C)O1 [Example 219, 4-((2S,6R)-2,6-Dimethylmorpholino)-N-(3-phenylpropyl)-1H-benzo[d]imidazole-1-carboxamide] | 0.5 µg/mL (≈ 1.27 µM) |  | < 0.2 µM
CC(C)CCNC(=O)n1cnc2c(N3CC4CC(C3)N4C)cccc21 [Example 160, N-iso-Pentyl-4-(6-methyl-3,6-diazabicyclo[3.1.1]-heptan-3-yl)-1H-benzo[d]imidazole-1-carboxamide] | 35 µg/mL (≈ 103 µM) | 0.2 to 1 µM | 
CN1CC2CC1CN2c1cccc2c1ncn2C(=O)NCCOc1ccccc1 (stereo not drawn) [Example 295, 4-(5-Methyl-2,5-diazabicyclo[2.2.1]heptan-2-yl)-N-(2-phenoxyethyl)-1H-benzo[d]imidazole-1-carboxamide] | 33 µg/mL (≈ 84.3 µM) |  | < 0.2 µM
CCCCNC(=O)n1c(OC(C)C)nc2ccccc21 [Example 96, N-Butyl-2-isopropoxy-1H-benzo[d]imidazole-1-carboxamide] | 10.3 µg/mL (≈ 37.4 µM) | > 1 µM | 
